Laboratory results: patent US7557211B2, “8H-imidazo[4,5-D]thiazolo[4,5-B]pyridine based tricyclic compounds and pharmaceutical compositions comprising same” (Bristol-Myers Squibb Company, priority 2004, dated 2009)

Tested on: T98
Assay: Ames testing
Assay type: cell-based
Conditions: T98 with S9 activation
Method: A60.7 (370 mg) was dissolved in trifluoroacetic acid and stirred at 50° C. for 2h and 45 min. then at 60° C. for 2 h, then overnight at room temperature. The solvent was removed under reduced pressure and co-evaporated with diethyl ether (2×). Ether (˜20 mL) was added and the mixture sonicated for 1 min. The crude product was collected by filtration and rinsed with an additional portion of ether and dried under vacuum to yield 130 mg of a pale yellow solid. The crude product was washed with several portions of saturated aqueous sodium bicarbonate then water and dried under vacuum. The crude product was purified by automated reverse phase HPLC. The appropriate fractions were combined and azeotroped with heptane to produce 43 mg of a pale yellow solid. The solid was treated with a few milliliters of saturated aqueous sodium bicarbonate solution rinsed with water and dried under vacuum over phosphorus pentoxide and subsequently rinsed with several portions of diethyl ether and dried to yield 36 mg of the desired product. (Caution: This material was subjected to Ames testing and found to be positive in T98 with S9 activation. Suitable precautions should be taken in handling this material) 1H NMR 400 MHz d^6DMSO δ: 8.26 s, 1H, 8.14-8.07 m, 2H, 7.62-7.53, m, 3H, 6.90-6.80, br s, 2H, 4.02, s, 3H.

`Cn1cnc2c(N)nc3nc(-c4ccccc4)sc3c21` [Example A60, 8-methyl-2-phenyl-8H-imidazo[4,5-d]thiazolo[4,5-b]pyridin-5-amine] was tested, and the Ames testing was “positive”.
